Source: patent US10441663B2, “Methods for treating cancer” (Bicycle Therapeutics Limited, priority 2016, dated 2019)
*1 amine or outer side, *2 acyl side, *3 side chain or, on linkers, in order; H or OH if unused. Where a SMILES comes first, the peptide text is derived from it. Bridges are numbered along the chain shown (N, C = ends). [ ]: non-standard residue; d: D form. The star is where a group is joined. X1 = COc1cc2cc(c1Cl)N(C)C(=O)C[C@H](OC(=O)[C@H](C)N(C)C(=O)CCSSC(C)CCC(=O)*)[C@]1(C)O[C@H]1[C@H](C)[C@@H]1C[C@@](O)(NC(=O)O1)[C@H](OC)/C=C/C=C(\C)C2; 1Nal = N[C@@H](Cc1cccc2ccccc12)C(=O)O; TBMB = c1c(C[*:1])cc(C[*:3])cc1C[*:2]; Tle = CC(C)(C)[C@H](N)C(=O)O; βAla = NCCC(=O)O; Sar = CNCC(=O)O

Assays:
HCT-15 xenograft = assay: In vivo efficacy of BT1718 in HCT-15 xenograft; set-up: species or system Mus Musculus
Procedure: (§1) The objective of this study was to evaluate the in vivo anti-tumor efficacy of BT1718in treatment of HT1080, NCI-H292, NCI-H1975, MDA-MB-231, HCC1806, RPMI2650, HCT-15, HT-29 and SNU-16 xenograft in BALB/c nude mice.
(§2) The HT1080, NCI-H292, NCI-H1975, MDA-MB-231, HCC1806, RPMI2650, HCT-15, HT-29 and SNU-16 tumor cells were maintained in vitro as a monolayer culture in medium supplemented with 10% heat inactivated fetal bovine serum at 37° C. in an […]. The tumor cells will be routinely subcultured twice weekly by trypsin-EDTA treatment. The cells growing in an exponential growth phase will be harvested and counted for tumor inoculation.
(§3) Mouse was inoculated subcutaneously at the right flank with tumor cells for tumor development. The animals were randomized and treatment was started when the average tumor reaches certain volume for the efficacy study, the inoculating cell amounts and starting tumor size were shown as below in Table 9. The test article administration and the animal numbers in each group were shown in the experimental design in Table 10.
(§4) All the procedures related to animal handling, care and the treatment in the study were performed according to the guidelines of the Association for Assessment and Accreditation of Laboratory Animal Care (AAALAC). At the time of routine monitoring, the animals were daily checked for any effects of tumor growth and treatments on normal behavior such as mobility, food and water consumption (by looking only), body weight gain/loss (body weights were measured every day), eye/hair matting and any other abnormal effect as stated in the protocol. Death and observed clinical signs were recorded on the basis of the numbers of animals within each subset.
(§5) The major endpoint was to see if the tumor growth could be delayed or mice could be cured. Tumor size was measured three times weekly in two dimensions using a caliper, and the volume was expressed in mm^3 using the formula: V=0.5 a×b^2 where a and b are the long and short diameters of the tumor, respectively. The tumor size was then used for calculations of T/C value. The T/C value (in percent) is an indication of antitumor effectiveness; T and C are the mean volumes of the treated and control groups, respectively, on a given day.
(§6) TGI was calculated for each group using the formula: TGI (%)=[1−(Ti−T0)/(Vi−V0)]×100; Ti is the average tumor volume of a treatment group on a given day, T0 is the average tumor volume of the treatment group on the day of treatment start, Vi is the average tumor volume of the vehicle control group on the same day with Ti, and V0 is the average tumor volume of the vehicle group on the day of treatment start.
(§7) Summary statistics, including mean and the standard error of the mean (SEM), are provided for the tumor volume of each group at each time point.
(§8) Statistical analysis of difference in tumor volume among the groups was conducted on the data obtained at the best therapeutic time point after the final dose.
(§9) A one-way ANOVA was performed to compare tumor volume among groups, and when a significant F-statistics (a ratio of treatment variance to the error variance) was obtained, comparisons between groups were carried out with Games-Howell test. All data were analyzed using Prism. P<0.05 was considered to be statistically significant.

SNU-16 xenograft = assay: In vivo efficacy of BT1718 in SNU-16 xenograft; set-up: species or system Mus Musculus; key to Best response at 10 mg/kg: CR complete response; PR partial response
Procedure: as §1, §2, §3, §4, §5, §6, §7, §8, §9

Structure (SMILES): COc1cc2cc(c1Cl)N(C)C(=O)C[C@H](OC(=O)[C@H](C)N(C)C(=O)CCSSC(C)CCC(=O)NCCC(=O)N(C)CC(=O)N(C)CC(=O)N(C)CC(=O)N(C)CC(=O)N(C)CC(=O)N(C)CC(=O)N(C)CC(=O)N(C)CC(=O)N(C)CC(=O)N(C)CC(=O)N[C@@H](C)C(=O)N[C@H]1CSCc3cc4cc(c3)CSC[C@H](NC(=O)[C@@H](C)NC(=O)[C@H](Cc3cccc5ccccc35)NC(=O)[C@H](CCC(=O)O)NC(=O)[C@H](CC(N)=O)NC(=O)[C@@H](C)NC1=O)C(=O)N[C@@H](CCC(=O)O)C(=O)N[C@@H](CC(=O)O)C(=O)N[C@@H](Cc1ccccc1)C(=O)N[C@@H](Cc1ccc(O)cc1)C(=O)N[C@@H](CC(=O)O)C(=O)N[C@@H](C(C)(C)C)C(=O)N[C@H](C(N)=O)CSC4)[C@]1(C)O[C@H]1[C@H](C)[C@@H]1C[C@@](O)(NC(=O)O1)[C@H](OC)/C=C/C=C(\C)C2 (stereo partly drawn) [BT1718] ({X1-βAla}-[Sar][Sar][Sar][Sar][Sar][Sar][Sar][Sar][Sar][Sar]AC[dA]NE[1Nal][dA]CEDFYD[Tle]C-NH2; linker 12-18-25 via TBMB (inferred))
- Body Weight (HCT-15 xenograft; 1 mpk biw, day 0): 22.2 ± 0.5 g
- Tumor Volume (HCT-15 xenograft; 1 mpk biw, day 0): 157 ± 6 mm^3
- Body Weight (HCT-15 xenograft; 1 mpk biw, day 2): 21.8 ± 0.3 g
- Tumor Volume (HCT-15 xenograft; 1 mpk biw, day 2): 174 ± 9 mm^3
- Body Weight (HCT-15 xenograft; 1 mpk biw, day 4): 21.6 ± 0.6 g
- Tumor Volume (HCT-15 xenograft; 1 mpk biw, day 4): 207 ± 14 mm^3
- Body Weight (HCT-15 xenograft; 1 mpk biw, day 7): 22.3 ± 0.5 g
- Tumor Volume (HCT-15 xenograft; 1 mpk biw, day 7): 385 ± 19 mm^3
- Body Weight (HCT-15 xenograft; 1 mpk biw, day 9): 21.9 ± 0.3 g
- Tumor Volume (HCT-15 xenograft; 1 mpk biw, day 9): 585 ± 26 mm^3
- Body Weight (HCT-15 xenograft; 1 mpk biw, day 11): 21.9 ± 0.5 g
- Tumor Volume (HCT-15 xenograft; 1 mpk biw, day 11): 937 ± 70 mm^3
- Body Weight (HCT-15 xenograft; 1 mpk biw, day 14): 22.1 ± 0.5 g
- Tumor Volume (HCT-15 xenograft; 1 mpk biw, day 14): 1238 ± 36 mm^3
- Body Weight (HCT-15 xenograft; 3 mpk biw, day 0): 21.6 ± 0.5 g
- Tumor Volume (HCT-15 xenograft; 3 mpk biw, day 0): 157 ± 6 mm^3
- Body Weight (HCT-15 xenograft; 3 mpk biw, day 2): 21.4 ± 0.2 g
- Tumor Volume (HCT-15 xenograft; 3 mpk biw, day 2): 140 ± 7 mm^3
- Body Weight (HCT-15 xenograft; 3 mpk biw, day 4): 21.6 ± 0.2 g
- Tumor Volume (HCT-15 xenograft; 3 mpk biw, day 4): 195 ± 26 mm^3
- Body Weight (HCT-15 xenograft; 3 mpk biw, day 7): 22.7 ± 0.4 g
- Tumor Volume (HCT-15 xenograft; 3 mpk biw, day 7): 389 ± 47 mm^3
- Body Weight (HCT-15 xenograft; 3 mpk biw, day 9): 22.2 ± 0.4 g
- Tumor Volume (HCT-15 xenograft; 3 mpk biw, day 9): 581 ± 54 mm^3
- Body Weight (HCT-15 xenograft; 3 mpk biw, day 11): 22.2 ± 0.5 g
- Tumor Volume (HCT-15 xenograft; 3 mpk biw, day 11): 901 ± 79 mm^3
- Body Weight (HCT-15 xenograft; 3 mpk biw, day 14): 22.3 ± 0.6 g
- Tumor Volume (HCT-15 xenograft; 3 mpk biw, day 14): 1180 ± 143 mm^3
- Body Weight (HCT-15 xenograft; 10 mpk biw, day 0): 22.2 ± 0.3 g
- Tumor Volume (HCT-15 xenograft; 10 mpk biw, day 0): 157 ± 11 mm^3
- Body Weight (HCT-15 xenograft; 10 mpk biw, day 2): 21.2 ± 0.2 g
- Tumor Volume (HCT-15 xenograft; 10 mpk biw, day 2): 130 ± 7 mm^3
- Body Weight (HCT-15 xenograft; 10 mpk biw, day 4): 20.2 ± 0.5 g
- Tumor Volume (HCT-15 xenograft; 10 mpk biw, day 4): 138 ± 14 mm^3
- Body Weight (HCT-15 xenograft; 10 mpk biw, day 7): 21.7 ± 0.3 g
- Tumor Volume (HCT-15 xenograft; 10 mpk biw, day 7): 265 ± 16 mm^3
- Body Weight (HCT-15 xenograft; 10 mpk biw, day 9): 19.9 ± 0.3 g
- Tumor Volume (HCT-15 xenograft; 10 mpk biw, day 9): 342 ± 47 mm^3
- Body Weight (HCT-15 xenograft; 10 mpk biw, day 11): 20.3 ± 0.7 g
- Tumor Volume (HCT-15 xenograft; 10 mpk biw, day 11): 562 ± 73 mm^3
- Body Weight (HCT-15 xenograft; 10 mpk biw, day 14): 20.8 ± 0.8 g
- Tumor Volume (HCT-15 xenograft; 10 mpk biw, day 14): 880 ± 89 mm^3
- Best response at 10 mg/kg (HCT-15 xenograft; HCT-15, 10 mg/kg): Growth delay
- TGI (HCT-15 xenograft; HCT-15, 1 mpk, biw, day 14): −0.9%
- Tumor Volume (HCT-15 xenograft; HCT-15, 1 mpk, biw, day 14): 1238 ± 36 mm^3
- TGI (HCT-15 xenograft; HCT-15, 3 mpk, biw, day 14): 4.6%
- Tumor Volume (HCT-15 xenograft; HCT-15, 3 mpk, biw, day 14): 1180 ± 143 mm^3
- TGI (HCT-15 xenograft; HCT-15, 10 mpk, biw, day 14): 32.5%
- Tumor Volume (HCT-15 xenograft; HCT-15, 10 mpk, biw, day 14): 880 ± 89 mm^3
- Minimally Effective Dose IV BIW (HCT-15 xenograft; HCT-15, dose leading to tumor-stasis): >10 mg/kg
- anti-tumor activity (HCT-15 xenograft; mouse, in vivo): did not show obvious anti-tumor activity
- Body Weight (SNU-16 xenograft; 1 mpk biw, day 0): 22.9 ± 0.5 g
- Tumor Volume (SNU-16 xenograft; 1 mpk biw, day 0): 160 ± 24 mm^3
- Body Weight (SNU-16 xenograft; 1 mpk biw, day 2): 22.8 ± 0.5 g
- Tumor Volume (SNU-16 xenograft; 1 mpk biw, day 2): 160 ± 15 mm^3
- Body Weight (SNU-16 xenograft; 1 mpk biw, day 4): 23.0 ± 0.5 g
- Tumor Volume (SNU-16 xenograft; 1 mpk biw, day 4): 140 ± 12 mm^3
- Body Weight (SNU-16 xenograft; 1 mpk biw, day 7): 23.0 ± 0.4 g
- Tumor Volume (SNU-16 xenograft; 1 mpk biw, day 7): 137 ± 13 mm^3
- Body Weight (SNU-16 xenograft; 1 mpk biw, day 9): 22.7 ± 0.5 g
- Tumor Volume (SNU-16 xenograft; 1 mpk biw, day 9): 139 ± 9 mm^3
- Body Weight (SNU-16 xenograft; 1 mpk biw, day 11): 23.0 ± 0.5 g
- Tumor Volume (SNU-16 xenograft; 1 mpk biw, day 11): 142 ± 11 mm^3
- Body Weight (SNU-16 xenograft; 1 mpk biw, day 14): 23.3 ± 0.5 g
- Tumor Volume (SNU-16 xenograft; 1 mpk biw, day 14): 176 ± 9 mm^3
- Body Weight (SNU-16 xenograft; 3 mpk biw, day 0): 22.7 ± 0.3 g
- Tumor Volume (SNU-16 xenograft; 3 mpk biw, day 0): 161 ± 29 mm^3
- Body Weight (SNU-16 xenograft; 3 mpk biw, day 2): 22.1 ± 0.5 g
- Tumor Volume (SNU-16 xenograft; 3 mpk biw, day 2): 115 ± 13 mm^3
- Body Weight (SNU-16 xenograft; 3 mpk biw, day 4): 21.8 ± 0.2 g
- Tumor Volume (SNU-16 xenograft; 3 mpk biw, day 4): 36 ± 4 mm^3
- Body Weight (SNU-16 xenograft; 3 mpk biw, day 7): 21.5 ± 0.3 g
- Tumor Volume (SNU-16 xenograft; 3 mpk biw, day 7): 25 ± 4 mm^3
- Body Weight (SNU-16 xenograft; 3 mpk biw, day 9): 20.0 ± 0.1 g
- Tumor Volume (SNU-16 xenograft; 3 mpk biw, day 9): 18 ± 1 mm^3
- Body Weight (SNU-16 xenograft; 3 mpk biw, day 11): 20.2 ± 0.6 g
- Tumor Volume (SNU-16 xenograft; 3 mpk biw, day 11): 5 ± 3 mm^3
- Body Weight (SNU-16 xenograft; 3 mpk biw, day 14): 20.6 ± 0.6 g
- Tumor Volume (SNU-16 xenograft; 3 mpk biw, day 14): 0 ± 0 mm^3
- Best response at 10 mg/kg (SNU-16 xenograft; SNU-16, 10 mg/kg): CR
- TGI (SNU-16 xenograft; SNU-16, 1 mpk, biw, day 14): 51.4%
- Tumor Volume (SNU-16 xenograft; SNU-16, 1 mpk, biw, day 14): 304 ± 43 mm^3
- TGI (SNU-16 xenograft; SNU-16, 3 mpk, biw, day 14): 94.5%
- Tumor Volume (SNU-16 xenograft; SNU-16, 3 mpk, biw, day 14): 176 ± 9 mm^3
- TGI (SNU-16 xenograft; SNU-16, 10 mpk, biw, day 14): 155%
- Tumor Volume (SNU-16 xenograft; SNU-16, 10 mpk, biw, day 14): 0 ± 0 mm^3
- Minimally Effective Dose IV BIW (SNU-16 xenograft; SNU-16, dose leading to tumor-stasis): 3 mg/kg
- dosing suspension until re-growth to 150 mm3 (SNU-16 xenograft; after 10 mg/kg biw): 7 weeks
- tumor response (SNU-16 xenograft; after 2 weeks 10 mg/kg biw): completely regressed
- dosing time until tumor regression on resumed treatment (SNU-16 xenograft; mouse, in vivo): 1-2 weeks
